Earlier results in patent US9974839B2, “Self-assembled toroidal-spiral particles and manufacture and uses thereof” (THE BOARD OF TRUSTEES OF THE UNIVERSITY OF ILLINOIS, priority 2009, dated 2018).

System: mitogenic activity
Details: in vitro

mono-PEGylated epidermal growth factor (EGF) with PEG 3400 at Lys28 and Lys48: literature EGF mono-PEGylated with PEG 3400 at Lys28 and Lys48 (ref. 28) (NSDSECPLSHDGYCLHDGVCMYIEALDKYACNCVVGYIGERCQYRDLKWWELR; Epidermal growth factor PEG 3400; UniProt P01133 971-1023, looked up)
mitogenic activity relative to EGF isomer PEGylated at the amino terminus: significantly less active
